Biological target: Drosophila melanogaster dopamine transporter (dDATcryst) (Drosophila melanogaster, UniProt Q7K4Y6, V74A/DEL164-206/V275A/V311A/L415A/G538L)
Format: binding

## CNCCC(Oc1ccccc1OC)c1ccccc1 (stereo not shown) [nisoxetine]
  Kd: 0.029 µM

From publication PMC3904663 (Nature, 2013)
